Publication PMC6010143, “Synthesis of new pyridothienopyrimidinone derivatives as Pim-1 inhibitors” (Journal of Enzyme Inhibition and Medicinal Chemistry, 2017)
Like-named read-outs stand apart in the source and are kept apart here. One block for each molecule: values may come before it.

Key:
pim-1 = conditions: cited from earlier work
pim-2 = conditions: cited from earlier work
pim-1 kinase = biological target: T1, pim-1 kinase (Homo sapiens, UniProt P11309); test: Pim-1 kinase radioisotope (33P-ATP) assay, Kinexus compound profiling service; type: biochemical; conditions: for pim-1 inhibition, in words: at 50 μM
T1 construct: The kinase used was cloned, expressed and purified using proprietary methods
T1 sequence (P11309 whole entry): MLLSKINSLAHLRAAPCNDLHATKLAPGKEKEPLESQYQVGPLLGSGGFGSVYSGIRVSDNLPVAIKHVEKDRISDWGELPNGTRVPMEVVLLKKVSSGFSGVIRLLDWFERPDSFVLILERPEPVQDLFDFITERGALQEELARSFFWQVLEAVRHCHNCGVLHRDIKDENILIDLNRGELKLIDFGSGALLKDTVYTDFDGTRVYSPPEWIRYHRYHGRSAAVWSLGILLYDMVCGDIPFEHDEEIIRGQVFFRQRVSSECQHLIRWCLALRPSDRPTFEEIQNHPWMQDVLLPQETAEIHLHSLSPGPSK
Experimental: The kinase inhibitory activity of the synthesized compounds was determined using the Kinexus compound profiling service, Canada. All the compounds were tested for their inhibitory activity against pim-1 kinase at 50 μM. The kinase used was cloned, expressed and purified using proprietary methods. Quality control testing is routinely performed to ensure compliance to acceptable standards. ^33P-ATP was purchased from PerkinElmer. All other materials were of standard laboratory grade.
The protein kinase target profiling was executed via employing a radioisotope assay format. All the assays were performed in a prepared radioactive working area. The protein kinase profiling assays were performed at room temperature for 20–30 min in a final volume of 25 μL according to the following assay reaction components: Component 1; 5 μl of diluted active protein kinase (∼10–50 nM final concentration in the assay). Component 2; 5 μl of stock solution of substrate. Component 3; 5 μl of kinase assay buffer. Component 4; 5 μl of the test compound, Staurosporine at 1 μM or 10% DMSO.
The assay was initiated by the addition of ^33P-ATP, followed by incubation at ambient temperature for 30 min. The assay was then terminated by spotting 10 μL of the reaction mixture onto a Multiscreen phosphocellulose P81 plate. The Multiscreen phosphocellulose P81 plate was washed three times for approximately 15 min each in a 1% phosphoric acid solution. The radioactivity on the P81 plate was counted in the presence of scintillation fluid in a Trilux scintillation counter. Blank control was set up that included all the assay components except the addition of the appropriate substrate (replaced with equal volume of assay dilution buffer). The corrected activity for protein kinase target was determined by removing the blank control value.

[1] = test system: human breast adenocarcinoma (MCF7); test: MTT cytotoxicity assay, MCF7; type: cell-based; conditions: for IC50: 72 h exposure, means of three experiments
Experimental: (§1) Cancer cells from different cancer cell lines were purchased from American type Cell Culture collection (ATCC, Manassas, VA). The cell lines used in this study were human breast adenocarcinoma (MCF7), human colon adenocarcinoma (HCT116) and human prostate cancer cells (PC3). The cell lines were grown on the appropriate growth medium Dulbecco's modified Eagle's medium (DMEM) or Roswell Park Memorial Institute medium (RPMI 1640) supplemented with […] of streptomycin, 100 units/mL of penicillin and 10% of heat-inactivated fetal bovine serum in a humidified, 5% (v/v) CO2 atmosphere at 37 °C.
(§2) Exponentially growing cells from different cancer cell lines were trypsinized, counted and seeded at the appropriate densities (2000–10 000 cells/0.33 cm^2 well) into 96-well microtiter plates. The cells were incubated in a humidified atmosphere at 37°C for 24 h. Then, the cells were exposed to different concentrations of compounds 6c, 7a, 7c, 7d, 8b and 9 (0.1, 10, 100 and 1000 μM) for 72 h. The viability of the treated cells was determined using MTT technique. The media were removed; cells were incubated with 200 μL of 5% MTT solution/well (Sigma Aldrich, St. Louis, MO) and were allowed to metabolize the dye into colored-insoluble formazan crystals for 2 h. The remaining MTT solution was discarded from the wells and the formazan crystals were dissolved in 200 μL/well-acidified isopropanol for 30 min, covered with aluminum foil and with continuous shaking using a MaxQ 2000 plate shaker (Thermo Fisher Scientific Inc, MI) at room temperature. The absorbance was measured at 570 nm using a Stat FaxR 4200 plate reader (Awareness Technology, Inc., Palm City, FL). […] The results are shown in Table 2 and represented graphically in Figure 5.

[2] = test system: human colon adenocarcinoma (HCT116); test: MTT cytotoxicity assay, HCT116; type: cell-based; conditions: for IC50: 72 h exposure, means of three experiments
Experimental: as §1, §2

[3] = test system: human prostate cancer cells (PC3); test: MTT cytotoxicity assay, PC3; type: cell-based; conditions: for IC50: 72 h exposure, means of three experiments
Experimental: as §1, §2

pim-3 = conditions: cited from earlier work

inhibition at 50 µM (pim-1 kinase; test compounds at 50 μM): 23%
% Inhibition of pim-1 kinase (pim-1 kinase; test compounds at 50 μM, 50 µM): 17%
melting point: > 300 °C
Structure (SMILES): CCc1nc2c(sc3nc(C)c(Br)c(C)c32)c(=O)[nH]1 [Compound 8c, 8-Bromo-2-ethyl-7,9-dimethylpyrido[3',2':4,5]thieno[3,2-d]pyrimidin-4(3H)-one]

IC50 (pim-1 kinase): 1.38 ± 0.025 µM
inhibition at 50 µM (pim-1 kinase; test compounds at 50 μM): 93%
Structure (SMILES): Cc1nc2sc3c(c2c(C)c1Br)NC(c1ccccc1O)NC3=O (stereo not shown) [Compound 7c, 8-Bromo-2-(2-hydroxyphenyl)-7,9-dimethyl-2,3-dihydropyrido[3',2':4,5]thieno[3,2-d]pyrimidin-4(1H)-one]
cytotoxic activity on MCF7, in words [1]: moderate
IC50 ([1]; Homo sapiens, MCF7, 72 h): 59.6 ± 1.2 µM
cytotoxic activity on HCT116, in words [2]: moderate
IC50 ([2]; Homo sapiens, HCT-116, 72 h): 181 ± 5.03 µM
cytotoxic activity on PC3, in words [3]: moderate
IC50 ([3]; Homo sapiens, 72 h): 58.2 ± 3.48 µM

pim-1 inhibition, in words (pim-1 kinase): moderate
inhibition at 50 µM (pim-1 kinase; test compounds at 50 μM): 51%
melting point: > 300 °C
Structure (SMILES): Cc1nc2c(sc3nc(C)c(Br)c(C)c32)c(=O)[nH]1 [Compound 8a, 8-Bromo-2,7,9-trimethylpyrido[3',2':4,5]thieno[3,2–d]pyrimidin-4(3H)-one]

IC50 (pim-1 kinase): 1.97 ± 0.022 µM
inhibition at 50 µM (pim-1 kinase; test compounds at 50 μM): 98%
Structure (SMILES): Cc1nc2sc3c(c2c(C)c1Br)NC(c1ccccc1C(F)(F)F)NC3=O (stereo not shown) [Compound 7d, 8-Bromo-7,9-dimethyl-2-[2-(trifluoromethyl)phenyl]-2,3-dihydropyrido[3',2':4,5]thieno[3,2-d]pyrimidin-4(1H)-one]
IC50 [1]: 30.2 ± 0.8 µM
IC50 ([1]; Homo sapiens, MCF7, 72 h): 18 to 38 µM
IC50 [2]: 30 ± 0.55 µM
IC50 ([2]; Homo sapiens, HCT-116, 72 h): 18 to 38 µM

IC50 (pim-1 kinase): 1.18 ± 0.14 µM
inhibition at 50 µM (pim-1 kinase; test compounds at 50 μM): 81%
Structure (SMILES): Cc1nc2sc3c(c2c(C)c1Br)NC(c1ccccc1Cl)NC3=O (stereo not shown) [Compound 7a, 8-Bromo-2-(2-chlorophenyl)-7,9-dimethyl-2,3-dihydropyrido[3',2':4,5]thieno[3,2-d]pyrimidin-4(1H)-one]
IC50 [1]: 23.8 ± 0.4 µM
IC50 ([1]; Homo sapiens, MCF7, 72 h): 18 to 38 µM
IC50 [2]: 18.3 ± 0.68 µM
IC50 ([2]; Homo sapiens, HCT-116, 72 h): 18 to 38 µM
IC50 [3]: 24.2 ± 0.91 µM
IC50 ([3]; Homo sapiens, 72 h): 18 to 38 µM

pim-1 inhibition, in words (pim-1 kinase): moderate
inhibition at 50 µM (pim-1 kinase; test compounds at 50 μM): 66%
melting point: 292 to 293 °C
Structure (SMILES): Cc1nc2sc3c(c2c(C)c1Br)NC(c1ccccc1F)NC3=O (stereo not shown) [Compound 7b, 8-Bromo-2-(2-fluorophenyl)-7,9-dimethyl-2,3-dihydropyrido[3',2':4,5]thieno[3,2-d]pyrimidin-4(1H)-one]

IC50 (pim-1 kinase): 8.83 ± 0.028 µM
inhibition at 50 µM (pim-1 kinase; test compounds at 50 μM): 96%
Structure (SMILES): Cc1nc2sc3c(=O)[nH]c(C(F)(F)F)nc3c2c(C)c1Br [Compound 8b, 8-Bromo-7,9-dimethyl-2-(trifluoromethyl)pyrido[3',2':4,5]thieno[3,2-d]pyrimidin-4(3H)-one]
cytotoxic activity on MCF7, in words [1]: potent
IC50 ([1]; Homo sapiens, MCF7, 72 h): 28.6 ± 1 µM
cytotoxic activity on HCT116, in words [2]: potent
IC50 ([2]; Homo sapiens, HCT-116, 72 h): 23.5 ± 0.53 µM
cytotoxic activity on PC3, in words [3]: moderate
IC50 ([3]; Homo sapiens, 72 h): 59.9 ± 2.48 µM

Second part, the molecule before the results:

Structure (SMILES): O=C(O)c1ccc2c(c1)nc(Nc1cccc(Cl)c1)c1ccncc12 [CX-4595]
IC50 (pim-1; Figure 1): 0.048 µM
IC50 (pim-2; Figure 1): 0.186 µM

Structure (SMILES): Cc1nc2sc3c(=O)[nH]c(-c4ccccc4C(F)(F)F)nc3c2c(C)c1Br [Compound 6d, 8-Bromo-7,9-dimethyl-2-[2-(trifluoromethyl)phenyl]pyrido[3',2':4,5]thieno[3,2-d]pyrimidin-4(3H)-one]
pim-1 inhibition, in words (pim-1 kinase): moderate
inhibition at 50 µM (pim-1 kinase; test compounds at 50 μM): 54%
melting point: 255 to 256 °C

Structure (SMILES): CN[C@@H]1C[C@H]2O[C@@](C)([C@@H]1OC)n1c3ccccc3c3c4c(c5c6ccccc6n2c5c31)C(=O)NC4 [Staurosporine, reference compound]
inhibition at 1 µM (pim-1 kinase; read-out: % Inhibition of pim-1 kinase): 93%

Structure (SMILES): Cc1nc2sc3c(=O)[nH]c(-c4ccccc4O)nc3c2c(C)c1Br [Compound 6c, 8-Bromo-2-(2-hydroxyphenyl)-7,9-dimethylpyrido[3',2':4,5]thieno[3,2-d]pyrimidin-4(3H)-one]
IC50 (pim-1 kinase): 4.62 ± 0.039 µM
inhibition at 50 µM (pim-1 kinase; test compounds at 50 μM): 85%
cytotoxic activity on MCF7, in words [1]: moderate
IC50 ([1]; Homo sapiens, MCF7, 72 h): 35.5 ± 1.3 µM
cytotoxic activity on HCT116, in words [2]: moderate
IC50 ([2]; Homo sapiens, HCT-116, 72 h): 63.3 ± 4.5 µM
cytotoxic activity on PC3, in words [3]: moderate
IC50 ([3]; Homo sapiens, 72 h): 60.1 ± 4.65 µM

Structure (SMILES): Cc1nc2sc(C(N)=O)c(N)c2c(C)c1Br [Compound 4, 3-Amino-5-bromo-4,6-dimethylthieno[2,3-b]pyridine-2-carboxamide]
inhibition at 50 µM (pim-1 kinase; test compounds at 50 μM): 16%
melting point: 260 to 261 °C

Structure (SMILES): CC(C)(O)[C@H]1CC[C@H](Nc2ccc3ncc(-c4cccc(C(F)(F)F)c4)n3n2)CC1 [SGI-9481]
Ki (pim-1; Figure 1): 5 nM
Ki (pim-2; Figure 1): 239 nM
Ki (pim-3; Figure 1): 0.042 µM

Structure (SMILES): Cc1nc2sc3c(=O)[nH]c(-c4ccccc4Cl)nc3c2c(C)c1Br [Compound 6a, 8-Bromo-2-(2-chlorophenyl)-7,9-dimethylpyrido[3',2':4,5]thieno[3,2-d]pyrimidin-4(3H)-one]
IC50 (pim-1 kinase): > 100 µM
inhibition at 50 µM (pim-1 kinase; test compounds at 50 μM): 36%
melting point: > 300 °C

Structure (SMILES): CC(=O)Cc1nc2c(sc3nc(C)c(Br)c(C)c32)c(=O)[nH]1 [Compound 9, 8-Bromo-7,9-dimethyl-2-(2-oxopropyl)pyrido[3',2':4,5]thieno[3,2-d]pyrimidin-4(3H)-one]
IC50 (pim-1 kinase): 4.18 ± 0.076 µM
inhibition at 50 µM (pim-1 kinase; test compounds at 50 μM): 89%
cytotoxic activity on MCF7, in words [1]: weak
IC50 ([1]; Homo sapiens, MCF7, 72 h): 123 ± 12 µM
cytotoxic activity on HCT116, in words [2]: weak
IC50 ([2]; Homo sapiens, HCT-116, 72 h): 151 ± 4.04 µM
cytotoxic activity on PC3, in words [3]: weak
IC50 ([3]; Homo sapiens, 72 h): 183 ± 12.1 µM

Structure (SMILES): CCOC(=O)Cc1nc2c(sc3nc(C)c(Br)c(C)c32)c(=O)[nH]1 [Compound 10, Ethyl (8-bromo-7,9-dimethyl-4-oxo-3,4-dihydropyrido[3',2':4,5]thieno[3,2-d]pyrimidin-2-yl)acetate]
pim-1 inhibition, in words (pim-1 kinase): poor
inhibition at 50 µM (pim-1 kinase; test compounds at 50 μM): 31%
melting point: 277 to 278 °C

Structure (SMILES): Cc1nc2sc3c(=O)[nH]cnc3c2c(C)c1Br [Compound 5, 8-bromo-7,9-dimethylpyrido[3′,2′:4,5]thieno[3,2-d]pyrimidin-4(3H)-one]
inhibition at 50 µM (pim-1 kinase; test compounds at 50 μM): 37%

Structure (SMILES): O=c1[nH]c(CNc2cccc(O)c2)nc2c1sc1ccc(Br)cc12 [VII]
Ki (pim-1; Figure 3): 0.8 nM
Ki (pim-2; Figure 3): 60 nM
Ki (pim-3; Figure 3): 0.004 µM

Structure (SMILES): NC1CCN(c2ccncc2NC(=O)c2ccc(F)c(-c3c(F)cccc3F)n2)CC1O (stereo not shown) [LGB321]
Ki (pim-1; Figure 1): 0.001 nM
Ki (pim-2; Figure 1): 0.0021 nM

Structure (SMILES): CN(C)Cc1nc2c(sc3ccc(-c4ccc(O)cc4)cc32)c(=O)[nH]1 [VI]
Ki (pim-1; Figure 3): 2 nM
Ki (pim-2; Figure 3): 3 nM
Ki (pim-3; Figure 3): 0.0005 µM

Structure (SMILES): Cc1nc2sc3c(=O)[nH]c(CC(=O)O)nc3c2c(C)c1Br [Compound 11, (8-Bromo-7,9-dimethyl-4-oxo-3,4-dihydropyrido[3',2':4,5]thieno[3,2-d]pyrimidin-2-yl)acetic acid]
pim-1 inhibition, in words (pim-1 kinase): poor
inhibition at 50 µM (pim-1 kinase; test compounds at 50 μM): 19%
melting point: > 300 °C

Structure (SMILES): Cc1nc2sc3c(=O)[nH]c(-c4ccccc4F)nc3c2c(C)c1Br [Compound 6b, 8-Bromo-2-(2-fluorophenyl)-7,9-dimethylpyrido[3',2':4,5]thieno[3,2-d]pyrimidin-4(3H)-one]
pim-1 inhibition, in words (pim-1 kinase): moderate
inhibition at 50 µM (pim-1 kinase; test compounds at 50 μM): 61%
melting point: 295 to 296 °C

Structure (SMILES): COc1ccc(N2CCN(C(=O)c3sc4nc(C)c(Br)c(C)c4c3N)CC2)cc1 [V]
IC50 (pim-1; Figure 2, earlier thieno[2,3-b]pyridine): 12.7 µM
